Tested on: automated midbrain organoids (AMOs)
Assay: 3D toxicology assay: cCasp3/Sox2 whole mount immunostaining and high content imaging of G418-treated organoids
Format: cell-based, human
Settings: AMOs treated for 4 days starting at day 50 of culture; 0-1000 μg/mL; cCasp3+ cells normalized by aggregate area
Description: In order to analyze protein expression in 3D in a HTS-compatible manner, we adapted a whole mount staining protocol based on Lee et al. ACT-PRESTO: Rapid and consistent tissue 579 clearing and labeling method for 3-dimensional (3D) imaging. Sci Rep 6, 18631 (2016) for organoids and optimized it for use in an automated liquid handling system. After fixation with 4% PFA (VWR) for 10-15 minutes, we stained the organoids with primary and secondary antibodies (Alexa Fluor secondary antibodies, Thermo Fisher) for 6 days each. We diluted the antibodies in a blocking and permeabilization solution (6% BSA, 0.5% Triton-X 100 (Roth), 0.1% (w/v) sodium azide (Sigma-Aldrich) in PBS (Sigma-Aldrich)) and renewed it every 2 days. Between primary and secondary antibody incubation as well as after the staining procedure we washed the organoids 5 times for 1 h with 0.1% Triton X-100 in PBS. […]
After staining and clearing, we achieved uniform aggregate positioning within the wells by tilting the plates off the horizontal plane at 60 degrees for 1 minute. Image acquisition was carried out in an Operetta high content imager (Perkin Elmer) and images were analyzed in Harmony 4.1 software. […] We excluded image artifacts, small dust particles, and overlapping nuclei by omitting nuclei brighter than 6000 abu and larger than 70 μm2 from further quantification. […]

With `CN[C@@H]1[C@@H](O)[C@@H](O[C@@H]2[C@@H](O)[C@H](O[C@H]3O[C@H]([C@@H](C)O)[C@@H](O)[C@H](O)[C@H]3N)[C@@H](N)C[C@H]2N)OC[C@]1(C)O` [G418] the “IC50 from dose-response curve of number of apoptotic cCasp3+ cells against logarithmic drug concentration” value was 339 μg/mL.
